Results published in patent publication US11649215B2, “Compositions and methods for the treatment of oral infectious diseases” (Cellix Bio Private Limited, priority 2016, dated 2023).
≈ marks a conversion by molar mass, not a printed value. Entries after “also recorded” stand apart in the source; their conditions may differ. Where two headings read alike, the source gives them in different places.

What was measured:
[1] = tested on: various oral pathogenic microorganisms; settings: cited from earlier work; for antimicrobial activity among the long-chain fatty acids: comparison among long-chain fatty acids
[2] = tested on: Candida Species; experiment: MIC against the Candida Species; type: cell-based; settings: conversion of 0.45 μmoles/ml, read-out: MIC (corresponding mass concentration)
From the text: Linoleic acid is GRAS listed long chain fatty acid. […] The minimum inhibitory concentration for linoleic acid against Porphyromonas gingivalis was 9 to 78 mcg/ml.

MIC [2] [µg/mL]	SMILES	antimicrobial activity among the long-chain fatty acids [1]	bactericidal concentration [1] [µg/mL]	antimicrobial activity against oral microorganisms ([1]; in vitro, incl. S. mutans, A. actinomycetemcomitans, C. albicans, P. gingivalis, F. nucleatum, S. gordonii)	bactericidal concentration ([1]; n-6 fatty acids GLA) [µg/mL]
–	CCCCC/C=C\C/C=C\C/C=C\C/C=C\CCCC(=O)O [arachidonic acid]	greatest antimicrobial activity	–	–	–
0.13 (≈ 0.464 µM)	CCCCC/C=C\C/C=C\CCCCCCCC(=O)O [Linoleic acid]	greatest antimicrobial activity	25	–	–
–	CCCCCC/C=C\CCCCCCCC(=O)O [palmitoleic acid]	greatest antimicrobial activity	–	–	–
–	CCCCC/C=C\C/C=C\C/C=C\CCCCC(=O)O [GLA, gamma linoleic acid]	greatest antimicrobial activity	–	significant anti-microbial activity; also recorded: antimicrobial activities	25
–	CCCCCCCCCCCCCCCC(=O)O [palmitic acid]	greatest antimicrobial activity	–	–	–
